According to patent US11697648B2, “Fused pyrimidine pyridinone compounds as JAK inhibitors” (THERAVANCE BIOPHARMA R&D IP, LLC, priority 2019, dated 2023):

Columns and labels:
Caco-2 cell monolayers = assay: Caco-2 permeation assay; assay type: in vitro ADME; conditions: 5 μM, A-B direction, with Verapamil (25 μM)
In short: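 Compounds tested at 5 μM in duplicate across Caco-2 monolayers, apical-to-basolateral, with 25 μM verapamil to block P-gp, at 37° C., 5% CO2. Apical and basal samples taken at 0 and 120 min, analysed by LC-MS/MS; Papp (cm/sec) calculated as dQ/(dt×Area×concentration).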

Tyk2 = Tyk2 (Homo sapiens (Human), UniProt P29597); assay: Biochemical Tyk2 kinase assay (LanthaScreen)
Chain of Tyk2 (P29597 whole entry): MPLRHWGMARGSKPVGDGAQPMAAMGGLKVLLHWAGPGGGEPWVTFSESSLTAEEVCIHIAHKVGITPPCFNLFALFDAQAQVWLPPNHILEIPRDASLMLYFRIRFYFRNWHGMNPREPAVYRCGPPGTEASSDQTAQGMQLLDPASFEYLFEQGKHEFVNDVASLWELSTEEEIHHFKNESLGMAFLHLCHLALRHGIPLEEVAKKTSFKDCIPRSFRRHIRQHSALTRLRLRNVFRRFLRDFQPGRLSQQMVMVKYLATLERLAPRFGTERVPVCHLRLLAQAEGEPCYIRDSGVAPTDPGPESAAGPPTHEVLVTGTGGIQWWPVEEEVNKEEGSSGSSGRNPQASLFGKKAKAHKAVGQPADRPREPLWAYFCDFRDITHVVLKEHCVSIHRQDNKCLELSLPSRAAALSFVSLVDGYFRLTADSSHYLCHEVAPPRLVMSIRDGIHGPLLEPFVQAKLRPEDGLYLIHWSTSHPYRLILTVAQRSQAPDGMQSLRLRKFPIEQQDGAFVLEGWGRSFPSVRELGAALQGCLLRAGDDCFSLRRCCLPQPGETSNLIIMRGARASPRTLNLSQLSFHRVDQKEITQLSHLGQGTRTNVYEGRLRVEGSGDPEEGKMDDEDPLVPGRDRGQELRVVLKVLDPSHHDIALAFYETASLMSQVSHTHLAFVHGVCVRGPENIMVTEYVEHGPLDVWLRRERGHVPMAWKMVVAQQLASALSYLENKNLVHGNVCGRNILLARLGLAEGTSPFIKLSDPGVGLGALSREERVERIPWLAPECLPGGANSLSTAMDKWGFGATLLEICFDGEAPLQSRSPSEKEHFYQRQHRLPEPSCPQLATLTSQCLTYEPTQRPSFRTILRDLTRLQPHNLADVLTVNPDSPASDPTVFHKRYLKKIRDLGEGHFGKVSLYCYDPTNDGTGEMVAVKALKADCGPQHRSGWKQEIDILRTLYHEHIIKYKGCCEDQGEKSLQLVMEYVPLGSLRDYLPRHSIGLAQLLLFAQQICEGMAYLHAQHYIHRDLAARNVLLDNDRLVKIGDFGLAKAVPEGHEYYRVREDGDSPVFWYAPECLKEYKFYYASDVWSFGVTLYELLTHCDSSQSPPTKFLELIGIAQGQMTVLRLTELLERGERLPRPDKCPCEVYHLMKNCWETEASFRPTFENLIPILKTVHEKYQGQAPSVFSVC
In short: (§1)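 GST-JAK + GFP-STAT1 peptide, HEPES pH 7.5/MgCl2/EGTA/Brij-35 buffer; cpd preincubation 1 h RT; ATP start, 1 h RT; stop with 10 mM EDTA + 2 nM Tb-anti-pSTAT1; TR-FRET 520/495. 4-parameter IC50 → pKi (Cheng-Prusoff).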

JAK3 = JAK3 (Homo sapiens (Human), UniProt P52333); assay: Biochemical JAK3 kinase assay (LanthaScreen); conditions: for JAK3 (pKi)-JAK1 (pKi): selectivity JAK3 over JAK1, difference of pKi
Chain of JAK3 (P52333 whole entry): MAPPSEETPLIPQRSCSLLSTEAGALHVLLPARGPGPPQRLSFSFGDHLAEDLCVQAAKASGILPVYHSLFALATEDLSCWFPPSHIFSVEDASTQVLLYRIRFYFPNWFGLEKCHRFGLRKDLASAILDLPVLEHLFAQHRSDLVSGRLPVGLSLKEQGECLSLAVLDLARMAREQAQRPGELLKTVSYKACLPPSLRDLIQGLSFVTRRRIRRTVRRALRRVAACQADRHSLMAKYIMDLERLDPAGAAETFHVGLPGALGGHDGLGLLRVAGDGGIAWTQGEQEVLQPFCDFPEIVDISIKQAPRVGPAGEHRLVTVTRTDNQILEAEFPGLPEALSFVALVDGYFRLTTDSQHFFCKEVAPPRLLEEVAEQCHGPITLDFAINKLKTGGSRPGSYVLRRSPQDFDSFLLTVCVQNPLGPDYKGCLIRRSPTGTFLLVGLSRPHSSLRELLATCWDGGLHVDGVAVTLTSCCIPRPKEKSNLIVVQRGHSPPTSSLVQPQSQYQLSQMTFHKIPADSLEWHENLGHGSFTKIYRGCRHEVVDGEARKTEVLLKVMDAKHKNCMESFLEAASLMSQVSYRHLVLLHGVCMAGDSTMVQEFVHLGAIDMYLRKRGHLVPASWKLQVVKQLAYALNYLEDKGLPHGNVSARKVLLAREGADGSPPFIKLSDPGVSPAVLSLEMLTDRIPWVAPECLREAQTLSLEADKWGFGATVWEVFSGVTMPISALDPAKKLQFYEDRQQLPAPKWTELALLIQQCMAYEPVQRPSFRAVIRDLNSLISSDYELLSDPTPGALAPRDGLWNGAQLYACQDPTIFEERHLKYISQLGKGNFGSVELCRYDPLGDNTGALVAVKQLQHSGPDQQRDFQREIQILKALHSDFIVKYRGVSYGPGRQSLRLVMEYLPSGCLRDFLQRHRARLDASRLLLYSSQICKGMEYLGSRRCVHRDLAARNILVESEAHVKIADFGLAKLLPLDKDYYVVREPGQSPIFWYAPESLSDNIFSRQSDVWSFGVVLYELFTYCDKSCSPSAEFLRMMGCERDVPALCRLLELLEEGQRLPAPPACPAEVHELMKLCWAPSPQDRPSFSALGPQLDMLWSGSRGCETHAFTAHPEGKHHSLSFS
In short: as §1

[1] = Colon and plasma mouse pharmacokinetics; assay type: in vivo; conditions: mouse, colon tissue / plasma; male Balb/c mice, 10 mg/kg PO; ratio of the colon AUC to the plasma AUC
Protocol: Assay 5: Colon and Plasma Mouse Pharmacokinetics
To 6 male Balb/c mice was administered 10 mg/kg of compound in 1% HPMC+0.1% Tween-80 by PO administration. At 0.5, 2 and 6 hours after dose administration, animals were anesthetized, and terminal blood samples were collected by cardiac puncture, followed by collection of colon contents and colon tissue.
Blood samples were collected into K2EDTA and stored on wet ice until processed to plasma by centrifugation (12000 rpm at 4° C.). Plasma samples were transferred to cluster tubes and placed on dry ice prior to freezer storage. The colon contents from each animal were collected at each terminal blood collection time point. The colon tissues were flushed with saline and patted dry. The colon and colon content tissues were homogenized using sterile water containing 0.1% formic acid 9:1 (water:tissue, v/w). The homogenized tissues and colon contents were transferred to cluster tubes and placed on dry ice prior to freezer storage. All samples were analyzed using LC/MS/MS against analytical standards.
The composite pharmacokinetic parameters of the compounds were determined by non-compartmental analysis using Phoenix WinNonlin Version 6 (Certara, St. Louis, Mo.) and using mean values from 2 animals/time point. For plasma concentrations below the quantification limit (BQL), the lowest concentration measurable or the BLOQ (below limit of quantification) was used.
A colon to plasma ratio was determined as the ratio of the colon AUC to the plasma AUC.

JAK2 = JAK2 (Homo sapiens (Human), UniProt O60674); assay: Biochemical JAK2 kinase assay (LanthaScreen)
Chain of JAK2 (O60674 whole entry): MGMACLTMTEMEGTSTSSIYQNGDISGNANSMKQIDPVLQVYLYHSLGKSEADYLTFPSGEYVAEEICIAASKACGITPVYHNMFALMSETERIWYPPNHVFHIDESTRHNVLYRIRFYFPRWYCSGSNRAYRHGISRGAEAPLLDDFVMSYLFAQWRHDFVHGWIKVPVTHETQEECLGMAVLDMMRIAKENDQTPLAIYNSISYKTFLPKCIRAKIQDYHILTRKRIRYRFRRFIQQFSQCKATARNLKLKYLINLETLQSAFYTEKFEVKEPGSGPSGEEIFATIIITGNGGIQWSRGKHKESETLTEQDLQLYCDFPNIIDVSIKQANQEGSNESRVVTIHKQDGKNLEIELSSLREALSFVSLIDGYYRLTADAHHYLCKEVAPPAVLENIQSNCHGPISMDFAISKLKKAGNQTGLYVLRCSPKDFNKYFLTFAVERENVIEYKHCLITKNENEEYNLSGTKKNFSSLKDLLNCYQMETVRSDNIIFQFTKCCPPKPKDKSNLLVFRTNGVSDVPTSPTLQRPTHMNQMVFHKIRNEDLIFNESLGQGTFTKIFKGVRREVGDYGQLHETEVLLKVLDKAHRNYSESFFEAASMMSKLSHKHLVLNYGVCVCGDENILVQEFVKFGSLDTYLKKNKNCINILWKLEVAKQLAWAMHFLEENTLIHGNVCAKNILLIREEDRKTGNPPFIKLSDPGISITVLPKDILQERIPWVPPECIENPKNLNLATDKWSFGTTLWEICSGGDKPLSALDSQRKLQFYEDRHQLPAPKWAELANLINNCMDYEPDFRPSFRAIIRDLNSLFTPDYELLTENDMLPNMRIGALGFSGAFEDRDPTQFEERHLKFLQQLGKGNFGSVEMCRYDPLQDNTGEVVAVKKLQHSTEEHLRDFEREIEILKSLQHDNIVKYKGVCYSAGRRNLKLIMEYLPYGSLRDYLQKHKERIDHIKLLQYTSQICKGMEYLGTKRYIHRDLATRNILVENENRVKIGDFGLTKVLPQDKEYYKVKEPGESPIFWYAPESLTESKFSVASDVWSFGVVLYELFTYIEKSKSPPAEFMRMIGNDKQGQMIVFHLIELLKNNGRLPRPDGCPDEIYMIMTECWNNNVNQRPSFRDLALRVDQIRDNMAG
In short: as §1

[2] = test system: IL-2 stimulated STAT5 phosphorylation in Tall-1 human T cell line (JAK3); assay: Cellular JAK3 potency assay: inhibition of IL-2 stimulated pSTAT5 in Tall-1 T cells; assay type: cell-based; conditions: IL-2 stimulated pSTAT5, Tall-1 T cells
In short: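 Tall-1 cells, 45,000 per well, preincubated 1 hour with compound at 37 °C, then stimulated 30 minutes with IL-2 at 300 ng/ml final. pSTAT5 (Tyr694/699) in lysates quantified by AlphaLISA SureFire Ultra. pIC50 derived from inhibition curves, given as mean with SD.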

JAK1 = JAK1 (Homo sapiens (Human), UniProt P23458); assay: Biochemical JAK1 kinase assay (LanthaScreen)
Chain of JAK1 (P23458 whole entry): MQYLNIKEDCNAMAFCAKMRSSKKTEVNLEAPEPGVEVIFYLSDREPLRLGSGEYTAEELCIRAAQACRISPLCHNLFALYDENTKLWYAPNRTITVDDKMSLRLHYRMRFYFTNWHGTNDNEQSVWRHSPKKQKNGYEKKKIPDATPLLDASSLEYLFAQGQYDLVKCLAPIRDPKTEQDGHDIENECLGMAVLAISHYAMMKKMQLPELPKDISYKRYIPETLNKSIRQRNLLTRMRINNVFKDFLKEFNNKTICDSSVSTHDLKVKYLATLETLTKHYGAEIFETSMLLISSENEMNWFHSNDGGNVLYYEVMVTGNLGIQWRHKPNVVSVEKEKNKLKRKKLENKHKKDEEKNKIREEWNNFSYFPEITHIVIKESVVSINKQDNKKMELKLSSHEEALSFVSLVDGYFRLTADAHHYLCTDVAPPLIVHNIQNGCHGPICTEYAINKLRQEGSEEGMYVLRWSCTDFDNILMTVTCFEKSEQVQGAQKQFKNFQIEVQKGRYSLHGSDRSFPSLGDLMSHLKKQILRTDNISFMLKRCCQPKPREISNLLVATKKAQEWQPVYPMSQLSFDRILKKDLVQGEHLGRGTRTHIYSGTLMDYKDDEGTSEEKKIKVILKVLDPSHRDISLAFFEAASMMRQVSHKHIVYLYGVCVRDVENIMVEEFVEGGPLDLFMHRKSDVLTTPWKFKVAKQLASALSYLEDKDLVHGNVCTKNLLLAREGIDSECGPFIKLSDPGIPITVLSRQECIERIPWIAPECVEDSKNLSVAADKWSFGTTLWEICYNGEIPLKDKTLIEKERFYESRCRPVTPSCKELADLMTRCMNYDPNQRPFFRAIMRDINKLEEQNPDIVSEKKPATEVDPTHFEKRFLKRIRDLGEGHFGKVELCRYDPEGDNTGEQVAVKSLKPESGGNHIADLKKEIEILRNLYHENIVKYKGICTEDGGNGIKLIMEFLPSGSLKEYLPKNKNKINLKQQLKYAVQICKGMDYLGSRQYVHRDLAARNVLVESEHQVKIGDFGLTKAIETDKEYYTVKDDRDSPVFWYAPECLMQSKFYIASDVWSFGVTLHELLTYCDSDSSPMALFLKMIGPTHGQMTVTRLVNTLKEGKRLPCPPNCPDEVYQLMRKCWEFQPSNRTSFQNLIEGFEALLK
In short: as §1

C=CC(=O)N1CC(CCn2c(=O)ccc3cnc(Nc4cnn(C)c4)nc32)C1 [Example 15]
Caco Kp (Caco-2 cell monolayers): B (B represents a value between 5×10^−6 and 10×10^−6 cm/sec)
Tyk 2 (pKi) (Tyk2): E (E represents a pKi value of 7 or below (Ki of 100 nM or above))
JAK 3 (pKi) (JAK3): B (B represents pKi value between 9 and 10 (Ki between 1 nM and 0.1 nM))
JAK3 (pKi)-JAK1 (pKi) (JAK3): A (A represents a value of 3 or above)
Kp [1]: > 100
JAK 2 (pKi) (JAK2): E (E represents a pKi value of 7 or below (Ki of 100 nM or above))
Tall-1 (pIC50) [2]: B (B represents a pC50 value between 6.7 (included) and 7.5 (IC50 between 200 nM and 32 nM))
JAK 1 (pKi) (JAK1): E (E represents a pKi value of 7 or below (Ki of 100 nM or above))

C=CC(=O)N1CC(CCn2c(=O)ccc3cnc(Nc4cnn(CCOC(C)C)c4)nc32)C1 [Example 24]
Caco Kp (Caco-2 cell monolayers): B (B represents a value between 5×10^−6 and 10×10^−6 cm/sec)
Tyk 2 (pKi) (Tyk2): E (E represents a pKi value of 7 or below (Ki of 100 nM or above))
JAK 3 (pKi) (JAK3): B (B represents pKi value between 9 and 10 (Ki between 1 nM and 0.1 nM))
JAK3 (pKi)-JAK1 (pKi) (JAK3): A (A represents a value of 3 or above)
Kp [1]: > 100
JAK 2 (pKi) (JAK2): E (E represents a pKi value of 7 or below (Ki of 100 nM or above))
Tall-1 (pIC50) [2]: B (B represents a pC50 value between 6.7 (included) and 7.5 (IC50 between 200 nM and 32 nM))
JAK 1 (pKi) (JAK1): E (E represents a pKi value of 7 or below (Ki of 100 nM or above))

C=CC(=O)N1CC(CCn2c(=O)ccc3cnc(Nc4ccc(N5CCSCC5)cc4)nc32)C1 [Example 26]
Caco Kp (Caco-2 cell monolayers): C (C represents a value between 10×10^−6 and 30×10^−6 cm/sec)
Tyk 2 (pKi) (Tyk2): E (E represents a pKi value of 7 or below (Ki of 100 nM or above))
JAK 3 (pKi) (JAK3): B (B represents pKi value between 9 and 10 (Ki between 1 nM and 0.1 nM))
JAK3 (pKi)-JAK1 (pKi) (JAK3): A (A represents a value of 3 or above)
Kp [1]: > 1000
JAK 2 (pKi) (JAK2): E (E represents a pKi value of 7 or below (Ki of 100 nM or above))
Tall-1 (pIC50) [2]: B (B represents a pC50 value between 6.7 (included) and 7.5 (IC50 between 200 nM and 32 nM))
JAK 1 (pKi) (JAK1): E (E represents a pKi value of 7 or below (Ki of 100 nM or above))

C=CC(=O)N1CC(CCn2c(=O)ccc3cnc(Nc4cccc(CN5CCOCC5)c4)nc32)C1 [Example 27]
Caco Kp (Caco-2 cell monolayers): C (C represents a value between 10×10^−6 and 30×10^−6 cm/sec)
Tyk 2 (pKi) (Tyk2): E (E represents a pKi value of 7 or below (Ki of 100 nM or above))
JAK 3 (pKi) (JAK3): B (B represents pKi value between 9 and 10 (Ki between 1 nM and 0.1 nM))
JAK3 (pKi)-JAK1 (pKi) (JAK3): A (A represents a value of 3 or above)
Kp [1]: > 100
JAK 2 (pKi) (JAK2): E (E represents a pKi value of 7 or below (Ki of 100 nM or above))
Tall-1 (pIC50) [2]: B (B represents a pC50 value between 6.7 (included) and 7.5 (IC50 between 200 nM and 32 nM))
JAK 1 (pKi) (JAK1): E (E represents a pKi value of 7 or below (Ki of 100 nM or above))

C=CC(=O)N1CC(CCn2c(=O)ccc3cnc(Nc4cccc(N5CCN(C)CC5)c4)nc32)C1 [Example 31]
Caco Kp (Caco-2 cell monolayers): A (A represents a value below 5×10^−6 cm/sec)
Tyk 2 (pKi) (Tyk2): E (E represents a pKi value of 7 or below (Ki of 100 nM or above))
JAK 3 (pKi) (JAK3): B (B represents pKi value between 9 and 10 (Ki between 1 nM and 0.1 nM))
JAK3 (pKi)-JAK1 (pKi) (JAK3): A (A represents a value of 3 or above)
Kp [1]: > 50
JAK 2 (pKi) (JAK2): E (E represents a pKi value of 7 or below (Ki of 100 nM or above))
Tall-1 (pIC50) [2]: B (B represents a pC50 value between 6.7 (included) and 7.5 (IC50 between 200 nM and 32 nM))
JAK 1 (pKi) (JAK1): E (E represents a pKi value of 7 or below (Ki of 100 nM or above))
